Laboratory results published in US11547681B2, “N-acylethanolamide derivatives and uses thereof” (ELIEM THERAPEUTICS, INC., priority 2016, dated 2023).

Experiment: in vitro
Conditions: for Concentration (μM) of analyte PEA, 0 min / Concentration (μM) of analyte PEA, 10 min / Concentration (μM) of analyte PEA, 20 min / Concentration (μM) of analyte PEA, 30 min / Concentration (μM) of analyte PEA, 60 min / % Remaining of Initial (n = 1), 0 min / % Remaining of Initial (n = 1), 10 min / % Remaining of Initial (n = 1), 20 min / % Remaining of Initial (n = 1), 30 min / % Remaining of Initial (n = 1), 60 min: 1 μM; for % Remaining of Initial (n = 1), 0 min: s9, 0 h; for % Remaining of Initial (n = 1), 10 min: s9, 10 min; for % Remaining of Initial (n = 1), 20 min: s9, 20 min; for % Remaining of Initial (n = 1), 30 min: s9, 0.5 h; for % Remaining of Initial (n = 1), 60 min: s9, 1 h; for half-life at 1 μM: s9, Half-life (min)
Method: Reaction mixture, minus cofactors, was prepared as described below. Test article was added into the reaction mixture at a final concentration of 1 μM. […] An aliquot of the reaction mixture (without cofactor cocktail) was equilibrated in a shaking water bath at 37° C. for 3 minutes. The reaction was initiated by the addition of cofactor cocktail (see below), and the mixture was then incubated in a shaking water bath at 37° C. Aliquots (100 μL) were withdrawn 0, 10, 20, 30 and 60 minutes. Test article samples were immediately combined with 300 μL of ice-cold acetonitrile containing 1% formic acid. Control samples were immediately combined with 400 μL of ice-cold 50/50 acetonitrile (ACN)/dH2O containing 0.1% formic acid and internal standard to terminate the reaction. Samples were then mixed and centrifuged to precipitate proteins. Calibration standards were prepared in matched matrix. Samples and standards were assayed by LC-MS/MS using electrospray ionization for both the dosed prodrug and the expected drug (PEA). Analytical conditions are outlined in Appendix 8-1. Test article concentration at each time point was compared to the test article concentration at time 0 to determine the percent remaining at each time point. Half-lives were calculated using GraphPad software, fitting to a single-phase exponential decay equation.
Reaction mixture, minus cofactors, was prepared as described below. Test article was added into the reaction mixture at a final concentration of 1 μM. […] An aliquot of the reaction mixture (without cofactor cocktail) was equilibrated in a shaking water bath at 37° C. for 5 minutes. Reaction was initiated by the addition of cofactor cocktail (see below), and mixture was then incubated in a shaking water bath at 37° C. Aliquots (100 μL) were withdrawn at 0, 10, 20, 30, and 60 minutes. Test article samples were immediately combined with 300 μL of ice-cold acetonitrile containing 1% formic acid. Control samples were immediately combined with 400 μL of ice-cold 50/50 acetonitrile (ACN)/dH2O containing 0.1% formic acid and internal standard to terminate the reaction. Samples were then mixed and centrifuged to precipitate proteins. Calibration standards were prepared in matched matrix. Samples and standards were assayed by LC-MS/MS using electrospray ionization for both dosed prodrug and expected drug (PEA). Analytical conditions are outlined in Appendix 10-1. Test article concentration at each time point was compared to test article concentration at time 0 to determine the percent remaining at each time point. Half-lives were calculated using GraphPad software, fitting to a single-phase exponential decay equation.
The reaction mixture, minus cofactors, was prepared as described below. Test article was added into the reaction mixture at a final concentration of 1 μM. […] An aliquot of the reaction mixture (without cofactor cocktail) was equilibrated in a shaking water bath at 37° C. for 3 minutes. Reaction was initiated by the addition of cofactor cocktail (see below), and the mixture was then incubated in a shaking water bath at 37° C. Aliquots (100 μL) were withdrawn at 0, 10, 20, 30, and 60 minutes. Test article samples were immediately combined with 300 μL of ice-cold acetonitrile containing 1% formic acid. Control samples were immediately combined with 400 μL of ice-cold 50/50 acetonitrile (ACN)/dH2O containing 0.1% formic acid and internal standard to terminate the reaction. Samples were then mixed and centrifuged to precipitate proteins. Calibration standards were prepared in matched matrix. Samples and standards were assayed by LC-MS/MS using electrospray ionization for both dosed prodrug and expected drug (PEA). Analytical conditions are outlined in Appendix 13-1. Test article concentration at each time point was compared to the test article concentration at time 0 to determine the percent remaining at each time point.

- Concentration (μM) of analyte PEA, 0 min (both, human): 0.047 µM
- Concentration (μM) of analyte PEA, 10 min (both, human): 0.25 µM
- Concentration (μM) of analyte PEA, 20 min (both, human): 0.18 µM
- Concentration (μM) of analyte PEA, 30 min (both, human): 0.14 µM
- Concentration (μM) of analyte PEA, 60 min (both, human): 0.033 µM
- % Remaining of Initial (n = 1), 0 min (both, human): 100%
- % Remaining of Initial (n = 1), 10 min (both, human): 2.8%
- % Remaining of Initial (n = 1), 20 min (both, human): <1.0%
- % Remaining of Initial (n = 1), 30 min (both, human): <1.0%
- % Remaining of Initial (n = 1), 60 min (both, human): <1.0%
- Concentration (μM) of analyte PEA, 0 min (male, Beagle, dog): 0.069 µM
- Concentration (μM) of analyte PEA, 10 min (male, Beagle, dog): 0.51 µM
- Concentration (μM) of analyte PEA, 20 min (male, Beagle, dog): 0.34 µM
- Concentration (μM) of analyte PEA, 30 min (male, Beagle, dog): 0.29 µM
- Concentration (μM) of analyte PEA, 60 min (male, Beagle, dog): 0.13 µM
- % Remaining of Initial (n = 1), 0 min (male, Beagle, dog): 100%
- % Remaining of Initial (n = 1), 10 min (male, Beagle, dog): 4.6%
- % Remaining of Initial (n = 1), 20 min (male, Beagle, dog): 1.6%
- % Remaining of Initial (n = 1), 30 min (male, Beagle, dog): <1.0%
- % Remaining of Initial (n = 1), 60 min (male, Beagle, dog): <1.0%
- Concentration (μM) of analyte PEA, 0 min (male, CD-1, mouse): 0.18 µM
- Concentration (μM) of analyte PEA, 10 min (male, CD-1, mouse): 0.24 µM
- Concentration (μM) of analyte PEA, 20 min (male, CD-1, mouse): 0.13 µM
- Concentration (μM) of analyte PEA, 30 min (male, CD-1, mouse): 0.083 µM
- Concentration (μM) of analyte PEA, 60 min (male, CD-1, mouse): 0.015 µM
- % Remaining of Initial (n = 1), 0 min (male, CD-1, mouse): 100%
- % Remaining of Initial (n = 1), 10 min (male, CD-1, mouse): <1.0%
- % Remaining of Initial (n = 1), 20 min (male, CD-1, mouse): <1.0%
- % Remaining of Initial (n = 1), 30 min (male, CD-1, mouse): <1.0%
- % Remaining of Initial (n = 1), 60 min (male, CD-1, mouse): <1.0%
- half-life at 1 μM (male, CD-1, mouse): < 1 min
- Concentration (μM) of analyte PEA, 0 min (male, Sprague-Dawley, rat): 0 µM
- Concentration (μM) of analyte PEA, 10 min (male, Sprague-Dawley, rat): 0.14 µM
- Concentration (μM) of analyte PEA, 20 min (male, Sprague-Dawley, rat): 0.091 µM
- Concentration (μM) of analyte PEA, 30 min (male, Sprague-Dawley, rat): 0.059 µM
- Concentration (μM) of analyte PEA, 60 min (male, Sprague-Dawley, rat): 0.0062 µM
- % Remaining of Initial (n = 1), 0 min (male, Sprague-Dawley, rat): 100%
- % Remaining of Initial (n = 1), 10 min (male, Sprague-Dawley, rat): <1.0%
- % Remaining of Initial (n = 1), 20 min (male, Sprague-Dawley, rat): <1.0%
- % Remaining of Initial (n = 1), 30 min (male, Sprague-Dawley, rat): <1.0%
- % Remaining of Initial (n = 1), 60 min (male, Sprague-Dawley, rat): <1.0%
- half-life at 1 μM (male, Sprague-Dawley, rat): < 1 min
SMILES: CCCCCCCCCCCCCCCC(=O)NCCOC(=O)CCC(=O)OCC(COC(=O)CCC)OC(=O)CCC (stereo not drawn) [Compound I-11]
